# According to PMC7217877, “N-AS-triggered SPMs are direct regulators of microglia in a model of Alzheimer’s disease” (Nature Communications, 2020):
# Where “and” joins values, the source holds several entries; their conditions need not be identical. Identical values can stand only once.
# Key:
# [1] = test system: immortalized human microglia; test: LM-SPM profile of human microglia (LC-MS/MS, Supplementary Table 3, Fig 6d); format: cell-based; design: 15R-LxA4 / RvE1 / RvD1: unit not given here; conditions: for 15R-LxA4 / RvD1 / RvE1: human microglia, sFig 6d; for 11-HEPE in human microglia / 11-HETE in human microglia / 13-HDHA in human microglia / 15-HEPE in human microglia / 15-HETE in human microglia / 15R-LXA4 in human microglia / 17-HDHA in human microglia / 18-HEPE in human microglia / PGE3/PGD3 in human microglia / PGH2/PGE2 in human microglia / RvD1 in human microglia / RvE1 in human microglia: mean±s.e.m.
# [2] = test system: neuron; test: western blotting for ac-S565 and total COX2 in primary cells; format: cell-based, C57BL/6 mice; conditions: Ab 10mM + supplement, replicates
# [3] = target: T1, COX2 WT (Homo sapiens, UniProt P35354); test: in vitro [14C] acetylation assay of purified COX2; format: biochemical; conditions: purified COX2 + 14C-labelled acetyl donor, 2 h, 37 °C, scintillation counter, replicates, in cpm (unit assumed)
# T1 construct: His (N); made in house
# T1 sequence (P35354 18-604): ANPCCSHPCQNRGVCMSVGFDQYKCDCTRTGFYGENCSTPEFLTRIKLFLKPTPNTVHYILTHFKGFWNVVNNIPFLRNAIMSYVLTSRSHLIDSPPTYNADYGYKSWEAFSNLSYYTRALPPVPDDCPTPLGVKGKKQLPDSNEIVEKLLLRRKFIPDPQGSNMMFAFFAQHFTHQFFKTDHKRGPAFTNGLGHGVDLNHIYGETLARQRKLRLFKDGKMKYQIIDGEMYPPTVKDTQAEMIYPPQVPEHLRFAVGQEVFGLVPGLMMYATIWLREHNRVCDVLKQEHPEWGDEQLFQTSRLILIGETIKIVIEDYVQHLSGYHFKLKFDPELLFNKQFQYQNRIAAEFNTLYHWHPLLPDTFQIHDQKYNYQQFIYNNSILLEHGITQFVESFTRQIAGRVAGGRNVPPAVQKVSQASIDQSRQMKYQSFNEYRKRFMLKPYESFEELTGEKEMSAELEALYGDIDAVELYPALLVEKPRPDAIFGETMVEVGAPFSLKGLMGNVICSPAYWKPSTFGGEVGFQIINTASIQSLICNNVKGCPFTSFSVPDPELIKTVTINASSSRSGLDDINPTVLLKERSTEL
# [4] = test system: microglia; test: quantification of 15R-LXA4, RvE1, RvD1 in primary cells (LC-MS/MS); format: cell-based, C57BL/6 mice; design: unit not given here; conditions: Ab + supplement, replicates
# Method: Lipid mediators metabololipidomics were performed according to previously described procedures with minor modifications[4],[30]. To confirm the biosynthesis of lipid mediators by recombinant COX2 treated with N-AS or aspirin, 10 U of human recombinant COX2 (Cayman, 60122) was incubated in the presence of 500 μM aspirin (Sigma-Aldrich, A5376) or N-AS (Sigma-Aldrich, 01912) at 37 °C for 30 min. The enzyme was filtered with a Microcon column (Millipore) to remove unreacted aspirin or N-AS and was then resuspended in 0.1 M Tris-HCl (pH 8.0). Next, 500 μM phenol (Sigma-Aldrich) and 1 μM hematin-porcine (Sigma-Aldrich) were added immediately before incubation with 100 μM AA, EPA or DHA (Cayman) at 37 °C for 2 h, respectively. The mixtures were incubated with 30 U of human 5-LOX (Cayman, 60402) containing 2 mM CaCl2 (Sigma-Aldrich), 1 mM ATP (Amresco) and 5 μM 13-HpODE (Cayman) as activators. Also, to validate the importance of residue S565 for N-AS-acetylation of COX2 and production of SPMs, 10 U of the COX2 S565A mutant was used in the above-described method. In addition, to confirm SPM generation in neurons and microglia, these cells were treated with Aβ and sonicated in neuronal and glial culture medium. […] To evaluate the relationship of N-AS and SPM production in microglia, microglia were isolated from WT, APP/PS1, and APP/PS1 treated with N-AS mice at 9 months of age. The microglia were sonicated and resuspended in microglial culture medium. The supernatants were incubated with 100 μM AA, EPA, and DHA (Cayman) at 37 °C for 2 h. A 50 μl aliquot of the mixture from each cell lysate was added to a 250 μl aliquot of 1 ng ml^−1 of 15S-LXA4-d5 (internal standard, Cayman) methanol solution. After vortexing for 10 min and centrifuging at 15,974×g for 5 min, the supernatant was subjected to the analysis of the lipid mediators using an Agilent 6470 Triple Quad LC-MS/MS system (Agilent) coupled to an Agilent 1290 HPLC system. Chromatographic separation was achieved using a Synergi Polar RP (4 μm, 2.0 mm i.d. × 150 mm, Phenomenex). Analytes were eluted with a mobile phase consisting of water: formic acid (100:0.1 v/v) (phase A) and methanol: formic acid (100:0.1 v/v) (phase B) in gradient elution mode for 23 min a flow rate of 0.2 ml min^−1. The elution gradient was as follows: from 0 to 0.1 min the content of phase A was 37% and the content of phase A was decreased to 10% and maintained for 5.5 min. The content of phase A was increased back to 37% at 6.0 min and maintained for 23 min. Quantification was carried out using MRM in negative ionization mode and collision energy of 10–15 eV. The mass transition from Q1 to Q3 is shown in Supplementary Table 2. In this study, the peak areas for all components were automatically integrated using MassHunter B 06.00. […]
smiles,measurement,setting,value
"CC(=O)SCCNC(=O)CCNC(=O)[C@H](O)C(C)(C)COP(=O)(O)OP(=O)(O)OC[C@H]1O[C@@H](n2cnc3c(N)ncnc32)[C@H](O)[C@@H]1OP(=O)(O)O [Acetyl-CoA, acetyl-CoA]",15R-LxA4,[1]; Aβ 50 µM +,29.8592 and 28.6097 and 30.6248 and 29.0936 and 30.1012
same,RvD1,[1]; Aβ 50 µM +,2.566 and 2.828 and 2.839 and 2.697 and 2.833 and 2.768
same,RvE1,[1]; Aβ 50 µM +,14.9946 and 13.574 and 15.0361 and 14.2843 and 14.305
same,"ac-S565, western blotting (Fig 3h)",[2],0.4974 and 0.4784 and 0.4801 and 0.5239
same,"C14 radioactivity of COX2, acetylation assay (Fig 1b)",[3]; listed as C14 Acetyl CoA,4565 and 4620 and 4766 and 3817
same,15R-LxA4 (Fig 3i),[4],23.4411 and 23.4018 and 22.7231 and 22.8804 and 24.0018 and 22.8017
same,RvD1 (Fig 3i),[4],1.293 and 1.217 and 1.321 and 1.255 and 1.269 and 1.288
same,RvE1 (Fig 3i),[4],7.62 and 7.421 and 7.916 and 7.52 and 7.668 and 7.718
"CC(=O)Oc1ccccc1C(=O)O [Aspirin, acetylsalicylic acid, reference compound]","C14 radioactivity of COX2, acetylation assay (Fig 1b)",[3]; listed as C14 Aspirin,16445 and 14504 and 14566 and 16561 and 14595 and 14332 and 14859
"CCCCCCCCCCCCC/C=C/[C@@H](O)[C@H](CO)NC(C)=O [N-AS, N-((2S,3R,E)-1,3-Dihydroxyoctadec-4-en-2-yl)acetamide]",11-HEPE in human microglia,[1]; Aβ 50 µM + treatment,371.7±4.0 ng/ml*106cell
same,11-HETE in human microglia,[1]; Aβ 50 µM + treatment,148.4±1.9 ng/ml*106cell
same,13-HDHA in human microglia,[1]; Aβ 50 µM + treatment,133.0±1.8 ng/ml*106cell
same,15-HEPE in human microglia,[1]; Aβ 50 µM + treatment,237.9±3.7 ng/ml*106cell
same,15-HETE in human microglia,[1]; Aβ 50 µM + treatment,625.4±1.7 ng/ml*106cell
same,15R-LXA4 in human microglia,[1]; Aβ 50 µM + treatment,19.8±0.2 ng/ml*106cell
same,17-HDHA in human microglia,[1]; Aβ 50 µM + treatment,707.6±8.2 ng/ml*106cell
same,18-HEPE in human microglia,[1]; Aβ 50 µM + treatment,1763.6±30.4 ng/ml*106cell
same,PGE3/PGD3 in human microglia,[1]; Aβ 50 µM + treatment,132.9±2.0 ng/ml*106cell
same,PGH2/PGE2 in human microglia,[1]; Aβ 50 µM + treatment,95.7±0.9 ng/ml*106cell
same,RvD1 in human microglia,[1]; Aβ 50 µM + treatment,2.13±0.02 ng/ml*106cell
same,RvE1 in human microglia,[1]; Aβ 50 µM + treatment,8.6±0.3 ng/ml*106cell
same,"SPM production, in words",[1]; Aβ-treated human microglia + N-AS,improved SPM production
same,11-HEPE in human microglia,[1]; Control (no Aβ) + treatment,451.8±4.6 ng/ml*106cell
same,11-HETE in human microglia,[1]; Control (no Aβ) + treatment,161.8±0.9 ng/ml*106cell
same,13-HDHA in human microglia,[1]; Control (no Aβ) + treatment,133.9±2.2 ng/ml*106cell
same,15-HEPE in human microglia,[1]; Control (no Aβ) + treatment,284.1±4.0 ng/ml*106cell
same,15-HETE in human microglia,[1]; Control (no Aβ) + treatment,625.5±6.8 ng/ml*106cell
same,15R-LXA4 in human microglia,[1]; Control (no Aβ) + treatment,28.7±0.3 ng/ml*106cell
same,17-HDHA in human microglia,[1]; Control (no Aβ) + treatment,633.8±9.2 ng/ml*106cell
same,18-HEPE in human microglia,[1]; Control (no Aβ) + treatment,1636.9±19.7 ng/ml*106cell
same,PGE3/PGD3 in human microglia,[1]; Control (no Aβ) + treatment,113.1±1.6 ng/ml*106cell
same,PGH2/PGE2 in human microglia,[1]; Control (no Aβ) + treatment,105.8±1.1 ng/ml*106cell
same,RvD1 in human microglia,[1]; Control (no Aβ) + treatment,2.36±0.02 ng/ml*106cell
same,RvE1 in human microglia,[1]; Control (no Aβ) + treatment,18.5±0.4 ng/ml*106cell
same,15R-LxA4,[1]; Aβ 50 µM +,20.003 and 19.3859 and 19.5943 and 20.5159 and 19.4901 and 20.0551
same,RvD1,[1]; Aβ 50 µM +,2.139 and 2.0589 and 2.21 and 2.099 and 2.134 and 2.154
same,RvE1,[1]; Aβ 50 µM +,9.835 and 7.339 and 9.039 and 8.587 and 8.189 and 8.813
same,15R-LxA4,[1]; Aβ 50 µM -,29.0008 and 28.9046 and 27.6099 and 29.7445 and 28.2572 and 28.6772
same,RvD1,[1]; Aβ 50 µM -,2.289 and 2.353 and 2.443 and 2.321 and 2.398 and 2.382
same,RvE1,[1]; Aβ 50 µM -,19.7237 and 16.8195 and 19.2333 and 18.2716 and 18.0264 and 18.7524
same,"ac-S565, western blotting (Fig 3h)",[2],1.382 and 1.374 (2×) and 1.247
same,"C14 radioactivity of COX2, acetylation assay (Fig 1b)",[3]; listed as C14 N-AS,347557 and 414691 and 285538 and 348458 and 418276 and 416508 and 283195
same,15R-LxA4 (Fig 3i),[4],7.914 and 7.871 and 7.582 and 7.755 and 8.0725 and 7.669
same,RvD1 (Fig 3i),[4],0.9961 and 0.9192 and 1.008 and 0.9576 and 0.9636 and 0.9828
same,RvE1 (Fig 3i),[4],3.41 and 3.669 and 3.726 and 3.54 and 3.698 and 3.633
